System: VIM-2-transformed E. coli growth with imipenem, MIC
Assay: MIC of VIM-2 E. coli under carbapenem – VIM-2-transformed E. coli, imipenem co-treatment, counter-screen for IMP-1 and VIM-2 inhibitor project, late-stage follow-up (AID 463100)

Row | SMILES | MIC
1 | O=C(O)c1ccc[c]([Hg+])c1 | 2.08 µM
2 | COc1cccc[c]1[Hg+] | 0.781 µM
3 | [Hg+][c]1ccccc1 | 0.625 µM
4 | Cc1cc[c]([Hg+])cc1 | 0.651 µM
5 | O=C(O)c1cc[c]([Hg][Cl])cc1 | 9.37 µM
6 | CC(=O)Nc1cc[c]([Hg+])cc1 | 2.5 µM
